The nature of assay [1]: Cytotoxicity against human MDA-MB-361/DYT2 cells assessed as decrease in cell viability after 4 days by MTS assay. Conditions: MDA-MB-361, 96 h. Type of assay: functional, cell-based. (Tetrazolium assays rely on reduction of a dye to a coloured formazan, in cell work by metabolically active cells.)
Assay [2] concerns KB. In words: Resistance ratio of IC50 for human KB 8.5 cells expressing MDR1 to IC50 for MDR1 deficient human KB cells. Type of assay: functional.
Assay [3] in a line: Cytotoxicity against MDR1 deficient human KB cells assessed as decrease in cell viability after 4 days by MTS assay. Type of assay: functional, cell-based. The settings on record: 96 h.
Assay [4] is described as follows: Cytotoxicity against human NCI-N87 cells assessed as decrease in cell viability after 4 days by MTS assay. Type of assay: functional, cell-based. Conditions: NCI-N87, 96 h.
The nature of assay [5]: Cytotoxicity against human KB 8.5 cells expressing MDR1 assessed as decrease in cell viability after 4 days by MTS assay. Type of assay: functional, cell-based. Conditions: KB 8.5, 96 h.

As for `CC[C@H](C)[C@H](NC(=O)[C@H]1CCCCN1C)C(=O)N(C)[C@H](C[C@@H](OC(C)=O)c1nc(C(=O)N[C@H](CNS(C)(=O)=O)Cc2ccccc2)cs1)C(C)C`, the IC50 stood at 0.27 nM in assay [1], 0.89 nM in assay [3], 0.47 nM in assay [4] and 31.7 nM in assay [5]. Also, the “Ratio IC50” value in assay [2] is reported as 36.

As for `CC[C@H](C)[C@H](NC(=O)[C@@]1(C)CCCN1C)C(=O)N(C)[C@H](C[C@@H](OC(C)=O)c1nc(C(=O)N[C@@H](Cc2ccccc2)C[C@H](C)C(=O)O)cs1)C(C)C`, the IC50 in assay [1] came to 0.07 nM; in assay [3] it was 0.11 nM; in assay [4], 0.13 nM; in assay [5], 1.02 nM. Moreover, the “Ratio IC50” value in assay [2] is recorded as 9.

Take `CC[C@H](C)[C@H](NC(=O)[C@@]1(C)CCCN1C)C(=O)N(C)[C@H](C[C@@H](O)c1nc(C(=O)N[C@@H](Cc2ccc(N)cc2)C[C@H](C)C(=O)O)cs1)C(C)C`: the IC50 was > 1000 nM in assay [1], 769 nM in assay [3], > 1000 nM in assay [4] and > 1000 nM in assay [5].

On to `CC[C@H](C)[C@H](NC(=O)[C@@]1(C)CCCN1C)C(=O)N(C)[C@H](C[C@@H](OC(C)=O)c1nc(C(=O)N[C@@H](Cc2ccccc2)[C@@H](O)C(=O)OC)cs1)C(C)C`, for which the IC50 in assay [1] worked out at 6.09 nM; in assay [3], 6.28 nM; in assay [4] it was 9.91 nM; in assay [5], 28.4 nM. In addition, in assay [2], the “Ratio IC50” value turned out to be 5.

In the case of `CC[C@H](C)[C@H](NC(=O)[C@@]1(C)CCCN1C)C(=O)N(C)[C@H](C[C@@H](OC(C)=O)c1nc(C(=O)N[C@@H](Cc2ccccc2)c2nccs2)cs1)C(C)C`, the IC50 in assay [1] was 22 nM; in assay [3], 37.9 nM; in assay [4], 29.5 nM; in assay [5] it was 104 nM. In addition, in assay [2], the “Ratio IC50” value worked out at 3.

In the case of `CC[C@H](C)[C@H](NC(=O)C(C)(C)N(C)C)C(=O)N(C)[C@H](C[C@@H](OC(C)=O)c1nc(C(=O)N[C@@H](Cc2ccccc2)C[C@H](C)C(=O)OC)cs1)C(C)C`, the concentration for half-maximal inhibition (IC50) in assay [1] was 3.37 nM; in assay [3] it was 4.68 nM; in assay [4], 9.76 nM; in assay [5] it was 53.9 nM. Besides, in assay [2], the “Ratio IC50” value stood at 11.

With `CC[C@H](C)[C@H](NC(=O)[C@H]1CCCN1C)C(=O)N(C)[C@H](C[C@@H](OC(C)=O)c1nc(C(=O)N[C@@H](Cc2ccccc2)C[C@H](C)C(=O)OC)cs1)C(C)C`, the 50% inhibitory concentration (IC50) in assay [1] was determined as 0.67 nM; in assay [3], 1.26 nM; in assay [4], 2.88 nM; in assay [5], 7.88 nM. Further, the “Ratio IC50” value in assay [2] stood at 6.

For the compound `CC[C@H](C)[C@H](NC(=O)[C@@]1(C)CCCN1C)C(=O)N(C)[C@H](C[C@@H](OC(C)=O)c1nc(C(=O)N[C@@H](Cc2ccccc2)C[C@H](C)C(=O)OC)cs1)C(C)C`, the IC50 in assay [1] came out at 0.45 nM; in assay [3] it was 1.04 nM; in assay [4] it was 0.89 nM; in assay [5], 5.52 nM. Further, the “Ratio IC50” value in assay [2] was 5.

As for `CC[C@H](C)[C@H](NC(=O)[C@@]1(C)CCCN1C)C(=O)N(C)[C@H](C[C@@H](OC(C)=O)c1nc(C(=O)N[C@H](CNS(C)(=O)=O)Cc2ccccc2)cs1)C(C)C`, the half-maximal inhibitory concentration (IC50) worked out at 4.9 nM in assay [1], 5.32 nM in assay [3], 9.24 nM in assay [4] and 93.7 nM in assay [5]. For the same compound, the “Ratio IC50” value in assay [2] was 18.

`CC[C@H](C)[C@H](NC(=O)[C@@]1(C)CCCN1C)C(=O)N(C)[C@H](C[C@@H](OC(C)=O)c1nc(C(=O)N[C@@H](Cc2ccc(N)cc2)C[C@H](C)C(=O)O)cs1)C(C)C`: the 50% inhibitory concentration (IC50) in assay [1] was determined as 0.9 nM; in assay [3], 0.5 nM; in assay [4] it was 1.11 nM; in assay [5], 2.77 nM. Moreover, the “Ratio IC50” value in assay [2] turned out to be 5.

Turning to `CCNC(=O)O[C@H](C[C@H](C(C)C)N(C)C(=O)[C@@H](NC(=O)[C@@]1(C)CCCN1C)[C@@H](C)CC)c1nc(C(=O)N[C@@H](Cc2ccc(N)cc2)C[C@H](C)C(=O)O)cs1`, the concentration for half-maximal inhibition (IC50) in assay [1] was determined as 1.94 nM; in assay [3], 0.77 nM; in assay [4], 1.92 nM; in assay [5], 4.53 nM. Further, the “Ratio IC50” value in assay [2] is given as 6.

Regarding `CC[C@H](C)[C@H](NC(=O)[C@@]1(C)CCCN1C)C(=O)N(C)[C@H](C[C@@H](OC(C)=O)c1nc(C(=O)NCCc2cscn2)cs1)C(C)C`, the IC50 in assay [1] was found to be 33.2 nM; in assay [3] it was 86.6 nM; in assay [4], 61.3 nM; in assay [5], 198 nM. Also, in assay [2], the “Ratio IC50” value amounted to 2.

On to `CC[C@H](C)[C@H](NC(=O)[C@H]1CCCCN1C)C(=O)N(C)[C@H](C[C@@H](OC(C)=O)c1nc(C(=O)N[C@@H](Cc2ccccc2)[C@@H](O)C(=O)OC)cs1)C(C)C`, for which the 50% inhibitory concentration (IC50) was 0.27 nM in assay [1], 1.21 nM in assay [3], 1 nM in assay [4] and 13.4 nM in assay [5]. Moreover, in assay [2], the “Ratio IC50” value was found to be 11.

`CC[C@H](C)[C@H](NC(=O)[C@@]1(C)CCCN1C)C(=O)N(C)[C@H](C[C@@H](OC(C)=O)c1nc(C(=O)NCCn2nnc3ccccc32)cs1)C(C)C`: the IC50 in assay [1] came out at 9.05 nM; in assay [3], 11.5 nM; in assay [4], 11.8 nM; in assay [5], 46.3 nM. In addition, in assay [2], the “Ratio IC50” value came out at 4.

For the compound `CC[C@H](C)[C@H](NC(=O)[C@H]1CCCCN1C)C(=O)N(C)[C@H](C[C@@H](OC(C)=O)c1nc(C(=O)N[C@@H](Cc2ccccc2)C(=O)N2CCCCC2)cs1)C(C)C`, the IC50 in assay [1] is 6.32 nM; in assay [3] it was 3.71 nM; in assay [4], 6.75 nM; in assay [5], 20.1 nM. The “Ratio IC50” value in assay [2] is given as 5.

For `CC[C@H](C)[C@H](NC(=O)[C@H]1CCCCN1C)C(=O)N(C)[C@H](C[C@@H](OC(C)=O)c1nc(C(=O)NCCn2nnc3ccccc32)cs1)C(C)C`, the half-inhibitory concentration (IC50) came out at 0.83 nM in assay [1], 1.44 nM in assay [3], 1.23 nM in assay [4] and 15.6 nM in assay [5]. For the same compound, in assay [2], the “Ratio IC50” value turned out to be 11.

For `CC[C@H](C)[C@H](NC(=O)[C@H]1CCCCN1C)C(=O)N(C)[C@H](C[C@@H](OC(C)=O)c1nc(C(=O)N[C@@H](Cc2ccccc2)CN2CCOCC2)cs1)C(C)C`, the IC50 in assay [1] came to 0.31 nM; in assay [3], 1.02 nM; in assay [4] it was 0.49 nM; in assay [5] it was 5.47 nM. For the same compound, in assay [2], the “Ratio IC50” value was found to be 5.

Consider `CC[C@H](C)[C@H](NC(=O)[C@H]1CCCCN1C)C(=O)N(C)[C@H](C[C@@H](OC(C)=O)c1nc(C(=O)N[C@@H](Cc2ccccc2)c2nccs2)cs1)C(C)C`, for which the IC50 was found to be 0.95 nM in assay [1], 3.57 nM in assay [3], 3 nM in assay [4] and 13.5 nM in assay [5]. The “Ratio IC50” value in assay [2] was 4.

On to `CC[C@H](C)[C@H](NC(=O)[C@H]1CCCCN1C)C(=O)N(C)[C@H](C[C@@H](OC(C)=O)c1nc(C(=O)NCCc2cscn2)cs1)C(C)C`, for which the IC50 in assay [1] came to 6.45 nM; in assay [3], 3.69 nM; in assay [4] it was 9 nM; in assay [5], 17.5 nM. For the same compound, the “Ratio IC50” value in assay [2] worked out at 5.

Turning to `CC[C@H](C)[C@H](NC(=O)[C@@H]1C[C@@H](O)CN1C)C(=O)N(C)[C@H](C[C@@H](OC(C)=O)c1nc(C(=O)N[C@@H](Cc2ccccc2)C[C@H](C)C(=O)OC)cs1)C(C)C`, the IC50 in assay [1] was 26.9 nM; in assay [3] it was 22.6 nM; in assay [4], 106 nM; in assay [5] it was 788 nM. In addition, the “Ratio IC50” value in assay [2] was 35.

As a reminder, the IC50 is the concentration at which inhibition is half-maximal.

The values above are taken from ChEMBL document CHEMBL3862032, “Design, Synthesis, and Cytotoxic Evaluation of Novel Tubulysin Analogues as ADC Payloads” (ACS Med Chem Lett, 2016).
